Laboratory results from PubChem BioAssay (NCI).
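Assay format: 96-well plates, 48-hour exposure. Here, GI50 denotes the concentration required for 50% inhibition of growth. At the TGI there is no net growth.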

Experiments:
Assay in all cases: growth of human tumour cells (NCI), 48 h
[1] = test system: 786-0 renal
[2] = test system: EKVX NSCLC
[3] = test system: HCT-116 colon
[4] = test system: HOP-92 NSCLC
[5] = test system: LOX IMVI melanoma
[6] = test system: NCI-H460 lung
[7] = test system: SK-MEL-28 melanoma
[8] = test system: SK-OV-3 ovarian
[9] = test system: SW-620 colon
[10] = test system: HCT-15 colon

SMILES: [O-]/[N+](=C\c1ccccc1)[C@H](COCc1ccccc1)c1ccccc1
- TGI [1]: > 100 µM
- TGI [2]: > 100 µM
- TGI [3]: > 100 µM
- TGI [4]: 92.7 µM
- TGI [5]: > 100 µM
- TGI [6]: > 100 µM
- TGI [7]: > 100 µM
- TGI [8]: > 100 µM
- TGI [9]: > 100 µM

SMILES: N=C(c1ccccc1)N(c1ccccc1)c1ccccc1
- TGI [1]: > 100 µM
- TGI [2]: > 100 µM
- TGI [3]: > 100 µM
- TGI [5]: > 100 µM
- TGI [6]: > 100 µM
- TGI [7]: > 100 µM
- TGI [9]: > 100 µM

SMILES: CC1=CCC[C@@]2(C)C(CC[C@@H]2C(C)/C=C/C(C)C)c2ccc(cc2C(=O)O)C[C@@H](O)CC1 (stereo not given in full)
- TGI [1]: 27.9 µM
- TGI [3]: 20.7 µM
- TGI [10]: 18.5 µM
- TGI [4]: 28.9 µM
- TGI [5]: 19 µM
- TGI [6]: 20.1 µM
- TGI [7]: 28.4 µM
- TGI [8]: 32.3 µM
- TGI [9]: 32.2 µM

SMILES: CCC1(C)NN=c2s/c(=C/c3ccc(OC)cc3)c(=O)n2N1 (stereo not given)
- TGI [1]: > 100 µM
- TGI [2]: > 100 µM
- TGI [3]: > 100 µM
- TGI [4]: 96.3 µM
- TGI [5]: > 100 µM
- TGI [6]: > 100 µM
- TGI [7]: > 100 µM
- TGI [8]: > 100 µM
- TGI [9]: > 100 µM

SMILES: CC1=C([Se]CC(OC(=O)[C@@H](CSSC(C)(C)C)NC(=O)OC(C)(C)C)C(=O)NC(C)(C)C)C(=O)c2ccccc2C1=O (stereo not given in full)
- GI50 [1]: 1.65 µM
- TGI [1]: 3.01 µM
- GI50 [2]: 1.51 µM
- TGI [2]: 3.11 µM
- GI50 [3]: 0.49 µM
- TGI [3]: 1.7 µM
- GI50 [10]: 1.66 µM
- TGI [10]: 3.12 µM
- GI50 [5]: 1.47 µM
- TGI [5]: 2.79 µM
- GI50 [6]: 0.364 µM
- TGI [6]: 1.32 µM
- GI50 [7]: 1.62 µM
- TGI [7]: 2.98 µM
- GI50 [8]: 1.36 µM
- TGI [8]: 2.64 µM
- GI50 [9]: 1.43 µM
- TGI [9]: 2.73 µM

SMILES: COc1cc(C(=O)OCCCCCCCCCCC[P+](c2ccccc2)(c2ccccc2)c2ccccc2)ccc1O
- GI50 [1]: 1.06 µM
- TGI [1]: 2.38 µM
- GI50 [3]: 0.273 µM
- TGI [3]: 1.09 µM
- GI50 [10]: 1.38 µM
- TGI [10]: 2.97 µM
- GI50 [8]: 1.35 µM
- TGI [8]: 5.5 µM

SMILES: CCC(C)CN1C(=O)NC(C)(Cc2ccccc2)C1=O (stereo not given)
- TGI [1]: > 100 µM
- TGI [2]: > 100 µM
- TGI [4]: > 100 µM
- TGI [5]: > 100 µM
- TGI [6]: > 100 µM
- TGI [7]: > 100 µM
- TGI [9]: > 100 µM

SMILES: O=C(Nc1c(O)[nH]c(=S)[nH]c1=O)c1ccccn1
- TGI [1]: > 100 µM
- TGI [3]: > 100 µM
- TGI [10]: > 100 µM
- TGI [4]: > 100 µM
- TGI [5]: > 100 µM
- TGI [6]: > 100 µM
- TGI [7]: > 100 µM
- TGI [8]: > 100 µM
- TGI [9]: > 100 µM

SMILES: CC(=O)OCC1OC(Nc2[nH]c(=O)n(C)c(=O)c2-c2csc(N)n2)C(OC(C)=O)C(OC(C)=O)C1OC(C)=O (stereo not given)
- TGI [1]: > 100 µM
- TGI [3]: > 100 µM
- TGI [10]: > 100 µM
- TGI [4]: > 100 µM
- TGI [5]: > 100 µM
- TGI [6]: > 100 µM
- TGI [7]: > 100 µM
- TGI [8]: > 100 µM
- TGI [9]: > 100 µM

SMILES: CCOc1ccc(NC(=O)CC2SC(=Nc3ccc(Cl)cc3)NC2=O)cc1 (stereo not given)
- TGI [1]: > 100 µM
- TGI [2]: > 100 µM
- TGI [10]: > 100 µM
- TGI [5]: > 100 µM
- TGI [6]: > 100 µM
- TGI [7]: > 100 µM
- TGI [8]: > 100 µM
- TGI [9]: > 100 µM

SMILES: COc1cc2c(cc1O)C=NCC2
- TGI [1]: > 100 µM
- TGI [2]: > 100 µM
- TGI [3]: > 100 µM
- TGI [10]: > 100 µM
- TGI [4]: > 100 µM
- TGI [6]: > 100 µM
- TGI [7]: > 100 µM
- TGI [8]: > 100 µM
- TGI [9]: > 100 µM

SMILES: O=[As](O)(O)c1ccc(NCc2ccccc2)cc1
- TGI [1]: > 100 µM
- TGI [2]: > 100 µM
- TGI [3]: > 100 µM
- TGI [10]: > 100 µM
- TGI [4]: > 100 µM
- TGI [5]: > 100 µM
- TGI [6]: > 100 µM
- TGI [7]: > 100 µM
